Experimental data: ChEMBL document CHEMBL5356995, “Aurones and derivatives as promising New Delhi metallo-β-lactamase (NDM-1) inhibitors” (Bioorg Med Chem, 2024)

Experiments:
Klebsiella pneumoniae = assay: Potentiation of meropenem induced antibacterial activity against blaNDM-1 producing Klebsiella pneumoniae SI-518 assessed as reduction in meropenem MIC at 32 ug/ml (reference value: 128 ug/ml); format: functional; conditions: dose 32 µg/ml
Escherichia coli [1] = assay: Potentiation of meropenem induced antibacterial activity against blaNDM-4 producing Escherichia coli SI-G001 assessed as reduction in meropenem MIC at 32 ug/ml (reference value: 128 ug/ml); format: functional; conditions: dose 32 µg/ml
Escherichia coli [2] = assay: Potentiation of meropenem induced antibacterial activity against blaNDM-1 producing Escherichia coli SI-004M assessed as reduction in meropenem MIC at 32 ug/ml (reference value: 64 ug/ml); format: functional; conditions: dose 32 µg/ml
Bacteria [3] = assay: Inhibition of bacterial IMP-1 assessed as substrate hydrolysis at 100 uM using imipenem as substrate by spectrophotometric analysis relative to control
[4] = biological target: Metallo-beta-lactamase type 2 (Bacteria) (UniProt C7C422); assay: Inhibition of bacterial NDM-1 assessed as substrate hydrolysis at 100 uM using imipenem as substrate by spectrophotometric analysis relative to control
Bacteria [5] = assay: Inhibition of bacterial VIM-2 assessed as substrate hydrolysis at 100 uM using imipenem as substrate by spectrophotometric analysis relative to control
[6] = biological target: Metallo-beta-lactamase type 2 (Bacteria, UniProt C7C422); assay: Inhibition of bacterial NDM-1
Chain of Metallo-beta-lactamase type 2 (C7C422 whole entry): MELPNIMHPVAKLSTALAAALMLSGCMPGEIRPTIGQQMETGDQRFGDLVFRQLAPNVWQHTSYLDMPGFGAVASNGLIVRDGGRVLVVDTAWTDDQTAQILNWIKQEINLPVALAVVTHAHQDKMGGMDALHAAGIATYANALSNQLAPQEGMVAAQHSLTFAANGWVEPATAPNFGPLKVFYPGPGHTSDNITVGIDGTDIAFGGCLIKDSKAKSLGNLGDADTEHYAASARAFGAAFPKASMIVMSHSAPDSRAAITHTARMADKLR

Chain of Metallo-beta-lactamase type 2 (Bacteria) (C7C422 whole entry): as above

O=C(O)[C@H](CCCn1c(-c2ccccc2)n[nH]c1=S)N(Cc1c[nH]cn1)Cc1c[nH]cn1
MIC (Klebsiella pneumoniae): ≤ 0.5 µg/mL
MIC (Escherichia coli [1]): ≤ 0.5 µg/mL
MIC (Escherichia coli [2]): ≤ 0.5 µg/mL
inhibition (Bacteria [3]): 40%
inhibition [4]: 97%
inhibition (Bacteria [5]): 96%

N[C@@H](CN[C@@H](CN[C@@H](CC(O)O)C(=O)O)C(=O)O)C(=O)O
Ki [6]: 0.011 µM

O=C(O)CN1CCN(CC(=O)O)CCN(CC(=O)O)CC1
Ki [6]: 5.1 µM

O=C1/C(=C/c2ccc(O)c(O)c2)Cc2cc(O)cc(O)c21
Ki [6]: 4.1 µM
